From the supplement of paper PMC11061612

What was measured:
Experiment in all cases: combination Emax (second highest fraction inhibited in the dose matrix, 72 h); higher = more inhibition; extreme values may be limits of the assay
[1] = tested on: BICR78 (Oral Cavity Carcinoma)
Method in brief: (§1)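 Cell lines grown in DMEM/F12 or RPMI with 10% FBS were plated in 1536-well plates and held 24 hours at 37°C, 5% CO2 before 72 hours of exposure to two-drug dose matrices, with DMSO typically at 0.2%. CellTiter-Glo 2.0 luminescence gave viability, which was converted to inhibition. Vehicle wells were set to 0 and blank wells to 1. Combination Emax is the second-highest inhibition in the matrix, and Bliss excess is the observed combination effect minus the expected EA + EB − EA·EB, where EA and EB are the single-agent effects.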

[2] = tested on: ETK-1 (Biliary Tract Carcinoma)
Method in brief: as §1

[3] = tested on: SW48 (Colorectal Carcinoma)
Method in brief: as §1

[4] = tested on: U-118-MG (Low Grade Glioma)
Method in brief: as §1

[5] = tested on: RCC10RGB (Kidney Carcinoma)
Method in brief: as §1

[6] = tested on: WSU-DLCL2 (B-Cell Non-Hodgkin's Lymphoma)
Method in brief: as §1

[7] = tested on: P31-FUJ (Acute Myeloid Leukemia)
Method in brief: as §1

[8] = tested on: SLVL (B-Cell Non-Hodgkin's Lymphoma)
Method in brief: as §1

[9] = tested on: HCT-116 (Colorectal Carcinoma)
Method in brief: as §1

HCC38 (Breast Carcinoma) = tested on: HCC38 (Breast Carcinoma)
Method in brief: as §1

Saos-2 (Osteosarcoma) = tested on: Saos-2 (Osteosarcoma)
Method in brief: as §1

[10] = tested on: TYK-nu (Ovarian Carcinoma)
Method in brief: as §1

MCF7 (Breast Carcinoma) = tested on: MCF7 (Breast Carcinoma)
Method in brief: as §1

[11] = tested on: SK-LMS-1 (Other Solid Carcinomas)
Method in brief: as §1

[12] = tested on: MEG-01 (Chronic Myelogenous Leukemia)
Method in brief: as §1

[13] = tested on: NOMO-1 (Acute Myeloid Leukemia)
Method in brief: as §1

[14] = tested on: SNU-61 (Colorectal Carcinoma)
Method in brief: as §1

[15] = tested on: 647-V (Bladder Carcinoma)
Method in brief: as §1

[16] = tested on: SKN-3 (Head and Neck Carcinoma)
Method in brief: as §1

A172 (Glioblastoma) = tested on: A172 (Glioblastoma)
Method in brief: as §1

| SMILES | combination Emax [1] | combination Emax [2] | combination Emax [3] | combination Emax [4] | combination Emax [5] | combination Emax [6] | combination Emax [7] | combination Emax [8] | combination Emax [9] | combination Emax (HCC38 (Breast Carcinoma)) | combination Emax (Saos-2 (Osteosarcoma)) | combination Emax [10] | combination Emax (MCF7 (Breast Carcinoma)) | combination Emax [11] | combination Emax [12] | combination Emax [13] | combination Emax [14] | combination Emax [15] | combination Emax [16] | combination Emax (A172 (Glioblastoma)) |
| --- | --- | --- | --- | --- | --- | --- | --- | --- | --- | --- | --- | --- | --- | --- | --- | --- | --- | --- | --- | --- |
| CC1(C)CCC(CN2CCN(c3ccc(C(=O)NS(=O)(=O)c4ccc(NCC5CCOCC5)c([N+](=O)[O-])c4)c(Oc4cnc5[nH]ccc5c4)c3)CC2)=C(c2ccc(Cl)cc2)C1 [Venetoclax] + C[C@@H]1COCCN1C2=NC(=NC(=C2)C3(CC3)[S@](=N)(=O)C)C4=C5C=CNC5=NC=C4 [AZD6738] (first compound max 1 µM, 7x7, partner max 10 µM) | 0.603 | 0.723 | 0.752 | 0.648 | 0.5 | 0.969 | 0.968 | 0.939 | 0.671 | 0.531 | 0.584 | 0.722 | 0.705 | 0.548 | 0.883 | 0.973 | 0.43 | 0.698 | 0.576 | 0.595 |
| CC1(C)CCC(CN2CCN(c3ccc(C(=O)NS(=O)(=O)c4ccc(NCC5CCOCC5)c([N+](=O)[O-])c4)c(Oc4cnc5[nH]ccc5c4)c3)CC2)=C(c2ccc(Cl)cc2)C1 [Venetoclax] + C[C@@H](Nc1cc(F)cc(F)c1)c1cc(C(=O)N(C)C)cc2c(=O)cc(N3CCOCC3)oc12 [AZD8186] (first compound max 1 µM, 7x7, partner max 3 µM) | 0.434 | 0.212 | 0.275 | 0.284 | 0.447 | 0.888 | 0.866 | 0.746 | 0.0935 | 0.16 | 0.34 | 0.495 | 0.255 | 0.412 | 0.646 | 0.931 | 0.103 | 0.17 | 0.148 | 0.171 |
| CC1(C)CCC(CN2CCN(c3ccc(C(=O)NS(=O)(=O)c4ccc(NCC5CCOCC5)c([N+](=O)[O-])c4)c(Oc4cnc5[nH]ccc5c4)c3)CC2)=C(c2ccc(Cl)cc2)C1 [Venetoclax] + Cc1cc2ncnn2cc1Nc1ncc2c(n1)n(C1CCOCC1)c(=O)n2C [AZD7648] (first compound max 1 µM, 7x7, partner max 10 µM) | 0.265 | 0.253 | 0.369 | 0.412 | 0.205 | 0.442 | 0.856 | 0.709 | 0.259 | 0.165 | 0.325 | 0.36 | 0.31 | 0.307 | 0.737 | 0.922 | 0.154 | 0.209 | 0.0976 | 0.334 |
| CC1(C)CCC(CN2CCN(c3ccc(C(=O)NS(=O)(=O)c4ccc(NCC5CCOCC5)c([N+](=O)[O-])c4)c(Oc4cnc5[nH]ccc5c4)c3)CC2)=C(c2ccc(Cl)cc2)C1 [Venetoclax] + Cn1cnc2c(F)c(Nc3ccc(Br)cc3Cl)c(C(=O)NOCCO)cc21 [Selumetinib] (first compound max 1 µM, 7x7, partner max 3 µM) | 0.323 | 0.165 | 0.52 | 0.181 | 0.447 | 0.375 | 0.871 | 0.735 | 0.506 | 0.109 | 0.299 | 0.464 | 0.104 | 0.203 | 0.868 | 0.994 | 0.351 | 0.133 | 0.286 | 0.206 |
